Experimental data from patent US20090325959A1 (priority 2008, published 2009).
pKi: −log10 of the molar value. Read-outs that look alike come from different tables or passages of the source.

Key:
[1] = target: T1, Akt3 human enzyme (Homo sapiens, UniProt Q9Y243); assay: Akt3 inhibition assay (IMAP FP); assay type: biochemical;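 further: kinase reaction run 60 min at room temperature after 30 µM ATP start, phosphorylated substrate captured on IMAP beads and read as fluorescence polarization (mP)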
T1 construct: purchased Upstate Chemicon 14-502

[2] = target: T2, p70S6K human enzyme (Homo sapiens, UniProt P23443, T412E); assay: p70S6K inhibition assay (IMAP FP); assay type: biochemical;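 further: kinase reaction run at room temperature, phosphorylated substrate captured on IMAP beads and read as fluorescence polarization in mP, IC50 then converted to Ki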
T2 construct: purchased Upstate Chemicon 14-486
Method: Inhibition of Akt3 and p70S6K activity was determined using the IMAP™ FP Progressive Binding Kit (Molecular Devices product number R8127). […] Following the pre-incubation, 30 μM ATP was added to initiate the reaction. After 60 minutes at RT, Molecular Devices IMAP™ binding solution was added to bind phosphorylated substrate. After 30 minutes of incubation in the presence of the IMAP™ beads the fluorescence polarization was read and the ratio was reported as mP. IC50 results were calculated using the Prism software from Graphpad. The Ki values were determined according to the following formula: Ki=IC50/(1+([ATP Challenge]/EC50 ATP)).

[3] = Compound plasma concentrations in unsensitized mice at 15 min post administration; assay type: in vivo; details: mouse, 15 μmol/kg; mean compound plasma concentration in mice at 15 minutes post oral administration; read-out: Mouse Oral PK
[4] = target: T3, ROCK1 (Homo sapiens, UniProt Q13464); assay: Rho kinase inhibition assay (IMAP fluorescence polarization), ROCK1; assay type: biochemical;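 further: kinase reaction run 60 min at room temperature, then phosphorylated substrate captured on IMAP beads for 30 min, with fluorescence polarization read in mP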
T3 construct: purchased Upstate/Chemicon 14-601
Method: (§1) Following the pre-incubation, 10 μM ATP was added to initiate the reaction. After 60 minutes at room temperature, Molecular Devices IMAP™ binding solution was added to bind phosphorylated substrate. After 30 minutes of incubation in the presence of the IMAP™ beads, the fluorescence polarization was read and the ratio was reported as mP. IC50 values for compounds and EC50 values for ATP were calculated using the Prism software from Graphpad.

[5] = tested on: A-10 rat thoracic aorta cells; assay: PDGF-stimulated smooth muscle cell proliferation assay (BrdU incorporation); assay type: cell-based; details: A-10 cells, 10 ng/mL PDGF, BrdU incorporation, percent of total challenge-stimulated proliferation; for Percent of PDGF Induced Proliferation at 1 μM Avg: 1 μM test compound; for Percent of PDGF Induced Proliferation at 10 μM Avg: 10 μM test compound;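 on all read-outs here: cells kept in serum-free medium, BrdU allowed to incorporate for 24 h, then incorporated label detected fluorometrically with an anti-BrdU antibody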
Method: Effects on cell proliferation were measured using a bromodeoxyuridine (BrdU) incorporation assay. […] Serum free media containing 01% BSA was added to the cells. 24 hours later the media was removed and replaced with warmed serum free media. […] Proliferation was then monitored using the BrdU Cell Proliferation Assay, HTS (Calbiochem cat. #t HTS01). BrdU was allowed to incorporate into cells for 24 hours prior to the addition of fixative/denaturing solution and the fluorometric detection of incorporated BrdU using a BrdU antibody as per manufacturer's directions. Data are reported as a percent of the PDGF-stimulated BrdU incorporation.

[6] = target: T4, ROCK2 (Homo sapiens, UniProt O75116); assay: Rho kinase inhibition assay (IMAP fluorescence polarization), ROCK2; assay type: biochemical;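 further: kinase reaction started with 10 µM ATP and run 60 min at room temperature, then phosphorylated substrate captured on IMAP beads for 30 min and fluorescence polarization read in mP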
T4 construct: purchased Upstate/Chemicon 14-451
Method: as §1

[7] = 30 μM ATP, Ki=IC50/(1+([ATP Challenge]/EC50 ATP)), read-out: Akt3 Ki, Avg
[8] = 30 μM ATP, Ki=IC50/(1+([ATP Challenge]/EC50 ATP)), read-out: p70S6K Ki, Avg
[9] = average Ki, read-out: p70S6K Ki
[10] = 10 μM ATP, read-out: ROCK2 Ki, Avg

T2 sequence (P23443 1-421 T412E limits assumed): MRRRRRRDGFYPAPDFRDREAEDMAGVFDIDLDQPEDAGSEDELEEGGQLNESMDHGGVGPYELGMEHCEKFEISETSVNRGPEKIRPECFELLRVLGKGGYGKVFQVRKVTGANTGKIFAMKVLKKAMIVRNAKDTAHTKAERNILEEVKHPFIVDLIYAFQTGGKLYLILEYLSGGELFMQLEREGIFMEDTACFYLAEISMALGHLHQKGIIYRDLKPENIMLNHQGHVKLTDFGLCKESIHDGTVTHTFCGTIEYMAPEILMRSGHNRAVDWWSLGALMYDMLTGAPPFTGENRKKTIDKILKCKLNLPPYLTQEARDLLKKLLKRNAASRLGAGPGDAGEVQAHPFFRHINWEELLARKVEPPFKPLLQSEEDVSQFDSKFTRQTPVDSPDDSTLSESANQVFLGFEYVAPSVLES
T1 sequence (Q9Y243 whole entry): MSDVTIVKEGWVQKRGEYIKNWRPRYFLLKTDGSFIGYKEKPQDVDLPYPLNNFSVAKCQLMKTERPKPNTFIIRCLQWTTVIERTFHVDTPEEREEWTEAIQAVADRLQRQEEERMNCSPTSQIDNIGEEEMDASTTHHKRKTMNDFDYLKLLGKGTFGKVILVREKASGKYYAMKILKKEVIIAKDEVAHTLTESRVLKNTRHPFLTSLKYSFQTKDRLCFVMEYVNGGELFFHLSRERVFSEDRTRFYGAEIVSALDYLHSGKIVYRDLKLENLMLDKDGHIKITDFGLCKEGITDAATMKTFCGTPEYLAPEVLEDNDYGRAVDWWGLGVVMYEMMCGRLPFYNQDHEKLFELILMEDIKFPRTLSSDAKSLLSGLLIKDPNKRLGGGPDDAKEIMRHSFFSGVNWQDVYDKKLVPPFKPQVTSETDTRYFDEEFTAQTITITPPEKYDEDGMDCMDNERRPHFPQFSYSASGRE
T4 sequence (O75116 11-552 limits assumed): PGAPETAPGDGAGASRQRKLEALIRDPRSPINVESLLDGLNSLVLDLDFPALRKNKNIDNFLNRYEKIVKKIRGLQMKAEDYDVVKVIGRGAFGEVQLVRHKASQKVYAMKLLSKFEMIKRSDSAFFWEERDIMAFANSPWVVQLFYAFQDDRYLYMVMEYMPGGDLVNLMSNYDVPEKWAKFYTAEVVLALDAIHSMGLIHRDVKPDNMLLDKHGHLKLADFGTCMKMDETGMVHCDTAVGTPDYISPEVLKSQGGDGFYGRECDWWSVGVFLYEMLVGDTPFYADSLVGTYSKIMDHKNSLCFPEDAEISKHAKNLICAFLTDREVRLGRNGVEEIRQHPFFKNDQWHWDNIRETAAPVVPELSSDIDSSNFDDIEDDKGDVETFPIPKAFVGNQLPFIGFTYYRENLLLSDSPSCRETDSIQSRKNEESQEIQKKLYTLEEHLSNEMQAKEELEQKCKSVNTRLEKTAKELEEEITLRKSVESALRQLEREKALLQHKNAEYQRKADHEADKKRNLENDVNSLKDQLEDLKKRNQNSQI
T3 sequence (Q13464 17-535 limits assumed): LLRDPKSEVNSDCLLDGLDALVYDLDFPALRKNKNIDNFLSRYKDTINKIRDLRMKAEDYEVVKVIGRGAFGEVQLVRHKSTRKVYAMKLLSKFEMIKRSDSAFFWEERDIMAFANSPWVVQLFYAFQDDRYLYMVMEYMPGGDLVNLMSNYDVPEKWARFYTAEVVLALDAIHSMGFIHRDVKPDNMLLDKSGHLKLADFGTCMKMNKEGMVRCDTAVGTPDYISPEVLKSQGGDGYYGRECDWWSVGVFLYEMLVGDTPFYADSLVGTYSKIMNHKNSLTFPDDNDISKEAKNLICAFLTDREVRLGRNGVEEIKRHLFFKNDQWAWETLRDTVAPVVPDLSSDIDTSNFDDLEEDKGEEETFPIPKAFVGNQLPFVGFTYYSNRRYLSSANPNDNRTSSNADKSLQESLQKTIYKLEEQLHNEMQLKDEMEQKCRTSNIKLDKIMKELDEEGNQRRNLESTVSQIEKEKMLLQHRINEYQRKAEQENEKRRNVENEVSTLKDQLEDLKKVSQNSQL

Row | SMILES | pKi [1, 7] | pKi ([1]; average Ki, read-out: Akt3 Ki) | pKi [2, 8] | pKi [2, 9] | concentration at 15 min [3] | pKi ([4]; Avg, 10 μM ATP) | pKi ([4]; average Ki) | Percent of PDGF Induced Proliferation at 1 μM Avg [5] | Percent of PDGF Induced Proliferation at 10 μM Avg [5] | pKi [6, 10] | pKi ([6]; average Ki, read-out: ROCK2 Ki)
1 | NC(=O)Cn1ccc2cc(CN3CCC[C@H](Nc4ccc5[nH]ncc5c4)C3)ccc21 [Compound 1.165, (S)-2-(5-((3-(1H-indazol-5-ylamino)piperidin-1-yl)methyl)-1H-indol-1-yl)acetamide] | 5.38 | 5.38 | 5.79 | 5.79 | 94 nM | 7.29 | 7.29 | 74.8% | 57.9% | 8.47 | 8.47
2 | c1cc2cc(CN3CCC[C@H](Nc4ccc5[nH]ncc5c4)C3)ccc2s1 [Compound 1.175, (S)-N-(1-(benzo[b]thiophen-5-ylmethyl)piperidin-3-yl)-1H-indazol-5-amine] | 5.55 | 5.55 | 6.07 | 6.07 | 1130 nM | 7.18 | 7.18 | 58.2% | 49.0% | 8.12 | 8.12
3 | Clc1ccc(CN2CCC[C@@H](Nc3ccc4[nH]ncc4c3)C2)cc1 [Compound 1.132, (R)-N-(1-(4-chlorobenzyl)piperidin-3-yl)-1H-indazol-5-amine] | 7.09 | 7.09 | 6.29 | 6.29 | 982 nM | 7.65 | 7.65 | 48.9% | 30.3% | 8.46 | 8.46
4 | c1cc(N[C@@H]2CCN(Cc3ccc(C4CC4)cc3)C2)c2ccncc2c1 [Compound 2.022, (R)-N-(1-(4-cyclopropylbenzyl)pyrrolidin-3-yl)isoquinolin-5-amine] | 5.39 | – | 6.30 | – | – | 7.35 | – | 89.7% | 39.4% | 7.82 | –
5 | CC(C)c1ccc(CN2CCC[C@@H](Nc3ccc4[nH]ncc4c3)C2)cc1 [Compound 1.204, (R)-N-(1-(4-isopropylbenzyl)piperidin-3-yl)-1H-indazol-5-amine] | 5.72 | – | 6.03 | – | – | 6.71 | – | 79.3% | 42.8% | 7.50 | –
6 | Cc1ccc(CN2CCC[C@H](Nc3ccc4[nH]ncc4c3)C2)cc1O [Compound 1.151, (S)-5-((3-(1H-indazol-5-ylamino)piperidin-1-yl)methyl)2-methylphenol] | 6.15 | – | 6.28 | – | – | 7.64 | – | 51.0% | 63.8% | 8.54 | –
7 | c1ccc(CN2CC[C@@H](Nc3cccc4cnccc34)C2)cc1 [Compound 2.046, (R)-N-(1-benzylpyrrolidin-3-yl)isoquinolin-5-amine] | 5.70 | 5.70 | 6.12 | 6.12 | 488 nM | 7.78 | 7.78 | 57.4% | 32.1% | 8.25 | 8.25
8 | CCS(=O)(=O)Nc1cccc(CN2CC[C@@H](Nc3cccc4cnccc34)C2)c1 [Compound 2.041, (R)-N-(3-((3-(isoquinolin-5-ylamino)pyrrolidin-1-yl)methyl)phenyl)ethanesulfonamide] | 5.46 | 5.46 | 5.68 | 5.68 | 987 nM | 7.51 | 7.51 | 81.8% | 61.5% | 8.02 | 8.02
9 | FC(F)(F)c1ccc(CN2CCC[C@H](Nc3ccc4[nH]ncc4c3)C2)cc1 [Compound 1.167, (S)-N-(1-(4-(trifluoromethyl)benzyl)piperidin-3-yl)-1H-indazol-5-amine] | 5.08 | – | 5.97 | – | – | 6.93 | – | 78.8% | 52.7% | 7.73 | –
10 | CC(C)c1ccc(CN2CCC[C@H](Nc3ccc4[nH]ncc4c3)C2)cc1 [Compound 1.180, (S)-N-(1-(4-isopropylbenzyl)piperidin-3-yl)-1H-indazol-5-amine] | 4.92 | – | 5.99 | – | – | 6.86 | – | 92.4% | 64.8% | 7.64 | –
11 | CS(=O)(=O)Nc1cccc(CN2CCC[C@@H](Nc3ccc4[nH]ncc4c3)C2)c1 [Compound 1.093, (R)-N-(3-((3-(1H-indazol-5-ylamino)piperidin-1-yl)methyl)phenyl)methanesulfonamide] | 5.74 | 5.74 | 5.69 | 5.69 | 363 nM | 7.19 | 7.19 | – | – | 8.11 | 8.11
12 | CSc1cccc(CN2CCC[C@H](Nc3ccc4[nH]ncc4c3)C2)c1 [Compound 1.158, (S)-N-(1-(3-(methylthio)benzyl)piperidin-3-yl)-1H-indazol-5-amine] | 5.23 | 5.23 | 5.71 | 5.71 | 102 nM | 7.19 | 7.19 | – | – | 8.29 | 8.29
13 | Clc1ccc(CN2CC[C@@H](Nc3cccc4cnccc34)C2)cc1 [Compound 2.027, (R)-N-(1-(4-chlorobenzyl)pyrrolidin-3-yl)isoquinolin-5-amine] | 6.18 | – | 6.29 | – | – | 7.80 | – | 79.4% | 64.4% | 8.13 | –
14 | Cc1cccc(CN2CCC[C@H](Nc3ccc4[nH]ncc4c3)C2)c1 [Compound 1.171, (S)-N-(1-(3-methylbenzyl)piperidin-3-yl)-1H-indazol-5-amine] | 5.03 | 5.03 | 5.47 | 5.47 | 369 nM | 6.96 | 6.96 | – | – | 7.80 | 7.80
15 | CCCCS(=O)(=O)Nc1cc(CN2CCC[C@H](Nc3ccc4[nH]ncc4c3)C2)ccc1C [Compound 1.236, (S)-N-(5-((3-(1H-indazol-5-ylamino)piperidin-1-yl)methyl)-2-methylphenyl)butane-1-sulfonamide] | 5.43 | 5.43 | 5.56 | 5.56 | 48 nM | 7.31 | 7.31 | – | – | 8.68 | 8.68
16 | CSc1ccc(CN2CCCC(Nc3cccc4cnccc34)C2)cc1 (centres unmarked) [Compound 2.009, N-(1-(4-(methylthio)benzyl)piperidin-3-yl)isoquinolin-5-amine] | 5.43 | – | 5.89 | – | – | – | – | 128.9% | 56.5% | – | –
17 | c1cc2cc(CN3CCC[C@H](Nc4ccc5[nH]ncc5c4)C3)ccc2o1 [Compound 1.150, (S)-N-(1-(benzofuran-5-ylmethyl)piperidin-3-yl)-1H-indazol-5-amine] | 5.50 | 5.50 | 5.89 | 5.89 | 1390 nM | 7.48 | 7.48 | – | – | 8.49 | 8.49
18 | Cc1cccc(CN2CCC[C@H](Nc3ccc4[nH]ncc4c3)C2)c1C [Compound 1.156, (S)-N-(1-(2,3-dimethylbenzyl)piperidin-3-yl)-1H-indazol-5-amine] | 5.06 | 5.06 | 5.49 | 5.49 | 88 nM | 6.87 | 6.87 | – | – | 7.89 | 7.89
19 | Cc1ccc(CN2CCC[C@H](Nc3ccc4[nH]ncc4c3)C2)cc1OCCO [Compound 1.152, (S)-2-(5-((3-(1H-indazol-5-ylamino)piperidin-1-yl)methyl)-2-methylphenoxy)ethanol] | 5.70 | 5.70 | 6.28 | 6.28 | 435 nM | 7.70 | 7.70 | – | – | 8.48 | 8.48
20 | OCCn1ccc2ccc(CN3CCC[C@H](Nc4ccc5[nH]ncc5c4)C3)cc21 [Compound 1.109, (S)-2-(6-((3-(1H-indazol-5-ylamino)piperidin-1-yl)methyl)-1H-indol-1-yl)ethanol] | 5.28 | 5.28 | 5.60 | 5.60 | 187 nM | 7.23 | 7.23 | – | – | 8.02 | 8.02
21 | COc1ccc(CN2CCC[C@H](Nc3ccc4[nH]ncc4c3)C2)cc1 [Compound 1.079, (S)-N-(1-(4-methoxybenzyl)piperidin-3-yl)-1H-indazol-5-amine] | 5.14 | 5.14 | 5.52 | 5.52 | 2440 nM | 7.15 | 7.15 | – | – | 8.33 | 8.33
